According to ChEMBL document CHEMBL1201862, “PubChem BioAssay data set” (2004):
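Each compound was tested at five concentrations against cells in 96-well plates for 48 hours. GI50 is the concentration that inhibits growth by half.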 Activity calls are given as the source filed them. Cut-off read from the data, not from the text of the source: active = GI50 up to about 1.1 µM and inactive = higher.

Columns and labels:
Test in all cases: NCI-60 cell line screen, 48 h
786-0 = test system: 786-0
A549 = test system: A549
ACHN = test system: ACHN
CAKI-1 = test system: CAKI-1
CCRF-CEM = test system: CCRF-CEM
COLO 205 = test system: COLO 205
DU-145 = test system: DU-145
EKVX = test system: EKVX
HCC 2998 = test system: HCC 2998
HCT-116 = test system: HCT-116
HCT-15 = test system: HCT-15
HL-60 = test system: HL-60
HOP-62 = test system: HOP-62
HOP-92 = test system: HOP-92
HT-29 = test system: HT-29
Hs-578T = test system: Hs-578T
IGROV-1 = test system: IGROV-1
K562 = test system: K562
KM12 = test system: KM12
LOX IMVI = test system: LOX IMVI
M14 = test system: M14
MCF7 = test system: MCF7
MDA-MB-231 = test system: MDA-MB-231
MDA-MB-435 = test system: MDA-MB-435
MDA-N = test system: MDA-N
MOLT-4 = test system: MOLT-4
Malme-3M = test system: Malme-3M
NCI-H226 = test system: NCI-H226
NCI-H23 = test system: NCI-H23
NCI-H460 = test system: NCI-H460
NCI/ADR-RES = test system: NCI/ADR-RES
OVCAR-3 = test system: OVCAR-3
OVCAR-4 = test system: OVCAR-4
OVCAR-5 = test system: OVCAR-5
OVCAR-8 = test system: OVCAR-8
PC-3 = test system: PC-3
RPMI-8226 = test system: RPMI-8226
RXF 393 = test system: RXF 393
SF-268 = test system: SF-268
SF-295 = test system: SF-295
SF-539 = test system: SF-539
SK-MEL-28 = test system: SK-MEL-28
SK-MEL-2 = test system: SK-MEL-2
SK-MEL-5 = test system: SK-MEL-5
SK-OV-3 = test system: SK-OV-3
SN12C = test system: SN12C
SNB-19 = test system: SNB-19
SR = test system: SR
SW-620 = test system: SW-620
T47D = test system: T47D
TK-10 = test system: TK-10
U-251 = test system: U-251
UACC-257 = test system: UACC-257
UACC-62 = test system: UACC-62
UO-31 = test system: UO-31
A498 = test system: A498
SNB-75 = test system: SNB-75

## O=C(O)c1nn(-c2ccccc2)nc1-c1nn(-c2ccccc2)nc1C(=O)O
786-0
  GI50: > 100 µM (inactive)
A549
  GI50: > 100 µM (inactive)
ACHN
  GI50: > 100 µM (inactive)
CAKI-1
  GI50: > 100 µM (inactive)
CCRF-CEM
  GI50: > 100 µM (inactive)
COLO 205
  GI50: > 100 µM (inactive)
DU-145
  GI50: > 100 µM (inactive)
EKVX
  GI50: > 100 µM (inactive)
HCC 2998
  GI50: > 100 µM (inactive)
HCT-116
  GI50: > 100 µM (inactive)
HCT-15
  GI50: > 100 µM
HL-60
  GI50: > 100 µM (inactive)
HOP-62
  GI50: > 100 µM (inactive)
HOP-92
  GI50: > 100 µM (inactive)
HT-29
  GI50: > 100 µM (inactive)
Hs-578T
  GI50: > 100 µM (inactive)
IGROV-1
  GI50: > 100 µM (inactive)
K562
  GI50: > 100 µM (inactive)
KM12
  GI50: > 100 µM (inactive)
LOX IMVI
  GI50: > 100 µM (inactive)
M14
  GI50: > 100 µM (inactive)
MCF7
  GI50: > 100 µM (inactive)
MDA-MB-231
  GI50: > 100 µM (inactive)
MDA-MB-435
  GI50: > 100 µM (inactive)
MDA-N
  GI50: > 100 µM (inactive)
MOLT-4
  GI50: > 100 µM (inactive)
Malme-3M
  GI50: > 100 µM (inactive)
NCI-H226
  GI50: > 100 µM (inactive)
NCI-H23
  GI50: > 100 µM (inactive)
NCI-H460
  GI50: > 100 µM (inactive)
NCI/ADR-RES
  GI50: > 100 µM (inactive)
OVCAR-3
  GI50: > 100 µM (inactive)
OVCAR-4
  GI50: > 100 µM (inactive)
OVCAR-5
  GI50: > 100 µM (inactive)
OVCAR-8
  GI50: > 100 µM (inactive)
PC-3
  GI50: > 100 µM (inactive)
RPMI-8226
  GI50: > 100 µM (inactive)
RXF 393
  GI50: > 100 µM (inactive)
SF-268
  GI50: > 100 µM (inactive)
SF-295
  GI50: > 100 µM (inactive)
SF-539
  GI50: > 100 µM (inactive)
SK-MEL-28
  GI50: > 100 µM (inactive)
SK-MEL-2
  GI50: > 100 µM (inactive)
SK-MEL-5
  GI50: > 100 µM (inactive)
SK-OV-3
  GI50: > 100 µM (inactive)
SN12C
  GI50: > 100 µM (inactive)
SNB-19
  GI50: > 100 µM (inactive)
SR
  GI50: > 100 µM (inactive)
SW-620
  GI50: > 100 µM (inactive)
T47D
  GI50: > 100 µM (inactive)
TK-10
  GI50: > 100 µM (inactive)
U-251
  GI50: > 100 µM (inactive)
UACC-257
  GI50: > 100 µM (inactive)
UACC-62
  GI50: > 100 µM (inactive)
UO-31
  GI50: > 100 µM (inactive)

## [N-]=[N+]=NCc1nc(N)c2c3c(sc2n1)CCCC3
786-0
  GI50: 0.455 µM (active)
A498
  GI50: 10.9 µM (inactive)
A549
  GI50: 3.27 µM (inactive)
ACHN
  GI50: 3 µM (inactive)
CAKI-1
  GI50: 1.56 µM (inactive)
COLO 205
  GI50: 3.78 µM (inactive)
DU-145
  GI50: 3.13 µM (inactive)
EKVX
  GI50: 2.1 µM (inactive)
HCC 2998
  GI50: 1.84 µM (inactive)
HCT-116
  GI50: 2.52 µM (inactive)
HCT-15
  GI50: 2.76 µM
HOP-62
  GI50: 3.72 µM (inactive)
HOP-92
  GI50: 0.402 µM (active)
HT-29
  GI50: 1.55 µM (inactive)
Hs-578T
  GI50: 2.72 µM (inactive)
IGROV-1
  GI50: 1.2 µM (inactive)
K562
  GI50: 4.22 µM (inactive)
KM12
  GI50: 0.979 µM (active)
LOX IMVI
  GI50: 0.272 µM (active)
M14
  GI50: 3.46 µM (inactive)
MCF7
  GI50: 2.19 µM (inactive)
MDA-MB-231
  GI50: 6.17 µM (inactive)
MDA-MB-435
  GI50: 4.25 µM (inactive)
MDA-N
  GI50: 2.51 µM (inactive)
MOLT-4
  GI50: 3.29 µM (inactive)
Malme-3M
  GI50: 1.55 µM (inactive)
NCI-H226
  GI50: 2.14 µM (inactive)
NCI-H23
  GI50: 1.3 µM (inactive)
NCI-H460
  GI50: 3.43 µM (inactive)
NCI/ADR-RES
  GI50: 1.99 µM (inactive)
OVCAR-3
  GI50: 2.75 µM (inactive)
OVCAR-4
  GI50: 0.631 µM (active)
OVCAR-5
  GI50: 3.64 µM (inactive)
OVCAR-8
  GI50: 1.51 µM (inactive)
PC-3
  GI50: 2.04 µM (inactive)
RPMI-8226
  GI50: 2.19 µM (inactive)
RXF 393
  GI50: 5.4 µM (inactive)
SF-268
  GI50: 2.32 µM (inactive)
SF-295
  GI50: 7.38 µM (inactive)
SF-539
  GI50: 1.6 µM (inactive)
SK-MEL-28
  GI50: 7.16 µM (inactive)
SK-MEL-2
  GI50: 9.38 µM (inactive)
SK-MEL-5
  GI50: 1.36 µM (inactive)
SK-OV-3
  GI50: 11.6 µM (inactive)
SN12C
  GI50: 2.74 µM (inactive)
SNB-19
  GI50: 4.97 µM (inactive)
SNB-75
  GI50: 7.69 µM (inactive)
SR
  GI50: 4.99 µM (inactive)
SW-620
  GI50: 6.85 µM (inactive)
T47D
  GI50: 6.85 µM (inactive)
TK-10
  GI50: 12.4 µM (inactive)
U-251
  GI50: 2.47 µM (inactive)
UACC-257
  GI50: 4.22 µM (inactive)
UACC-62
  GI50: 5.06 µM (inactive)
UO-31
  GI50: 0.0532 µM (active)
